{"source": "paper PMC6271245", "about": "“Discovery of Gramine Derivatives That Inhibit the Early Stage of EV71 Replication in Vitro” (Molecules, 2014)", "assay_type_in_all_cases": "cell-based, Enterovirus 71", "key": {"EV71 [1]": {"system": "EV71", "assay": "Time-of-addition assay, progeny virus yield", "details": "compound present -1-10 h pi (similar for 0–10 h and 2–10 h); 10 µg/mL 4a, 20 µg/mL 4i, 40 µg/mL 4r or 4s; RD cells; 12 h pi", "protocol": "To further understand the mechanisms of these gramine derivatives against EV71 propagation in cells, a time-of-addition experiment was performed. For this experiment, 10 µg/mL 4a, 20 µg/mL 4i, or 40 µg/mL 4r or 4s were added to infected cultures at different time periods (with 2 h intervals) and the reductions in virus yield relative to untreated cultures were determined at 12 h pi. […] With drugs treatments during other periods after EV71 infection, a gradual increase of viral yields was observed, reflecting the loss of the antiviral effects of the compounds. Results from this experiment indicate that these gramine derivatives may exert antiviral effects via the same action mechanism and mainly interfere with the early events of virus replication.\nFigure 3 Time-of-addition assay. 10 µg/mL 4a, 20 µg/mL 4i, or 40 µg/mL 4r or 4s were added to RD cells at different time periods after EV71 infection. At 12 h pi, the progeny virus yield was determined (−1–0 h: viral infection period; 0–10 h: period for virus proliferation in the cells). Values are represented as the mean ± standard deviation.\nTime-of-addition experiments were carried out, to estimate the point where the compound interfered with the replication cycle of EV71. The RD cells were infected with 100 TCID50 of EV71 and then 10 µg/mL 4a, 20 µg/mL 4i, or 40 µg/mL 4r or 4s was added at different time phases (−1–0 h, 0–10 h, 2–10 h, 4–10 h, 6–10 h, 8–10 h and −1–10 h pi, where −1–0 h is the viral infection period and 0–10 h is the period for virus proliferation in the cells). The cells and supernatants were harvested at […] and subjected to three freeze–thaw cycles, after which the viruses were titered by the Reed-Muench method."}, "EV71 [2]": {"system": "EV71", "assay": "Effect on EV71 release from RD cells", "details": "10 µg/mL 4a, 20 µg/mL 4i, 40 µg/mL 4r or 4s after infection, supernatants and cells harvested together or separately at 12 h", "protocol": "Figure 2 Analysis of modes of action against EV71 of gramine derivatives. Analysis of effective stage. The RD cells were treated with tested compounds before, simultaneously or after EV71 (100 TCID50) inoculation: antiviral effects were detected by measuring (A) cell viability and (B) progeny virus yields (10 µg/mL 4a, 20 µg/mL 4i, 40 µg/mL 4r and 4s) 48 h post infection; (C) Analysis of the effects on EV71 adsorption. Mock- or 10 µg/mL 4a, 20 µg/mL 4i, 40 µg/mL 4r and 4s-treated EV71 (10^4 TCID50) was spinoculated onto RD cells and adsorbed for 2 h; intracellular virus was subjected to titration using the TCID50 method; (D) Effects on EV71 release from RD cells. RD cells infected with 100 TCID50 of EV71 were incubated with 10 µg/mL 4a, 20 µg/mL 4i, 40 µg/mL 4r and 4s for 12 h, of both cells and supernatants (intra- and extracellular), or of cells or supernatants harvested separately for virus titration. […] Values represent the mean ± standard deviation of three independent experiments.\nA possible effect of the compounds on viral release from cells was tested. The RD cells were treated with or without 10 µg/mL 4a, 20 µg/mL 4i, or 40 µg/mL 4r or 4s after EV71 infection, and the supernatants and cells were harvested together or separately for analysis of progeny virus yields at 12 h.\n(§1) The virus suspension, serially diluted 10-fold with DMEM containing 2% FBS, was inoculated to cells in a 96-well plate. After 1 h incubation at 37 °C in 5% CO2, unbinding virus was washed out and MM was added to the cells. After 2 days, the infected cells were monitored for cytopathic effects (CPEs). The virus titer was calculated by the Reed–Muench method."}, "EV71 [3]": {"system": "EV71", "assay": "Direct inactivation of virions (virucidal test), TCID50 titration", "details": "10^4 TCID50 EV71 incubated with 20 µg/mL 4a, 40 µg/mL 4i, 80 µg/mL 4r or 4s for 24 h at 4 °C; data not shown", "protocol": "Based on structure specificity, antiviral activity, and selectivity therapeutic index, compounds 4a, 4i, 4r and 4s were chosen for further investigation on modes of action against EV71 infection. To determine whether these gramine derivatives inactivated virions directly, 10^4 TCID50 (median tissue culture infective dose) of EV71 suspension was incubated with 20 µg/mL 4a, 40 µg/mL 4i, or 80 µg/mL 4r or 4s for 24 h at 4 °C; subsequently, the virus titers in the mixture were measured by inoculating 100-fold dilution of the mixtures beyond the effective concentrations of the compounds into the host cells. The TCID50 values were calculated by the Reed-Muench method based on the CPE observed on day 2 post inoculation (pi). […] Thus, these compounds appear not to be virucidal for the viruses tested.\nas §1"}, "EV71 [4]": {"system": "EV71", "assay": "Analysis of effective stage (treatment before, during or post infection) in RD cells", "details": "up to a concentration of 40 µg/mL"}}, "data": [{"compound": "c1ccc(C(Nc2ccccn2)c2c[nH]c3ccccc23)cc1", "note": "(centres unmarked) [Compound 4a]", "values": [{"measurement": "titers of the progeny virus, time of addition", "setting": "EV71 [1]", "value": "strongly reduced"}, {"measurement": "effect on release of EV71 from cells", "setting": "EV71 [2]", "value": "no effect on the release of EV71"}, {"measurement": "virus titers of mixture with vs without compound (virucidal effect)", "setting": "EV71 [3]", "value": "No significant difference in virus titers"}]}, {"compound": "c1ccc(C(Nc2nc3ccccc3s2)c2c[nH]c3ccccc23)nc1", "note": "(centres unmarked) [Compound 4s]", "values": [{"measurement": "titers of the progeny virus, time of addition", "setting": "EV71 [1]", "value": "strongly reduced"}, {"measurement": "effect on release of EV71 from cells", "setting": "EV71 [2]", "value": "no effect on the release of EV71"}, {"measurement": "virus titers of mixture with vs without compound (virucidal effect)", "setting": "EV71 [3]", "value": "No significant difference in virus titers"}, {"measurement": "morphological cytotoxicity", "setting": "EV71 [4]", "value": "no morphological cytotoxicity was observed"}]}, {"compound": "Cn1cc(C(Nc2nc3ccccc3s2)c2ccccc2F)c2ccccc21", "note": "(centres unmarked) [Compound 4r]", "values": [{"measurement": "titers of the progeny virus, time of addition", "setting": "EV71 [1]", "value": "strongly reduced"}, {"measurement": "effect on release of EV71 from cells", "setting": "EV71 [2]", "value": "no effect on the release of EV71"}, {"measurement": "virus titers of mixture with vs without compound (virucidal effect)", "setting": "EV71 [3]", "value": "No significant difference in virus titers"}, {"measurement": "morphological cytotoxicity", "setting": "EV71 [4]", "value": "no morphological cytotoxicity was observed"}]}, {"compound": "Cn1cc(C(Nc2ccccn2)c2ccc(F)cc2)c2ccccc21", "note": "(centres unmarked) [Compound 4i]", "values": [{"measurement": "titers of the progeny virus, time of addition", "setting": "EV71 [1]", "value": "strongly reduced"}, {"measurement": "effect on release of EV71 from cells", "setting": "EV71 [2]", "value": "no effect on the release of EV71"}, {"measurement": "virus titers of mixture with vs without compound (virucidal effect)", "setting": "EV71 [3]", "value": "No significant difference in virus titers"}]}]}
